Counter-ions that a name gives are not always drawn. Like-named read-outs stand apart in the source and are kept apart here.
Tests used:
[1] = biological target: T1, HO-2 (rat brain) (Rattus norvegicus, UniProt P23711); assay: HO enzymatic activity, rat brain microsomal fraction (CO formation from methemalbumin); assay type: biochemical
T1 construct: brain microsomes were used as a source of HO-2; from tissue; host or cells: brain microsomal fraction of adult male Sprague-Dawley rats
T1 sequence (P23711 1-315): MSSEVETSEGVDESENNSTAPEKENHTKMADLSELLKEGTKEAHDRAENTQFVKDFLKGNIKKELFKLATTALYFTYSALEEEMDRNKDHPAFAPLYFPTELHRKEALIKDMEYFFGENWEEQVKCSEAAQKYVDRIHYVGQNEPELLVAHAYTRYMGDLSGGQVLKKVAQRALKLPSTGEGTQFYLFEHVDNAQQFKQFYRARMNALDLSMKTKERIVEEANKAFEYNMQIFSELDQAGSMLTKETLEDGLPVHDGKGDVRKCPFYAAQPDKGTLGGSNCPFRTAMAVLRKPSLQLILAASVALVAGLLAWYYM
Description: (§1) Incubations for HO activity analysis were done under conditions for which the rate of CO formation (pmol CO×min^−1×mg protein^−1) was linear with respect to time and microsomal protein concentration. Briefly, reaction mixtures (150 μL) consisting of 100 mM phosphate buffer (pH 7.4), 50 μM methemalbumin, and 1 mg/mL protein were pre-incubated with the inhibitors at final concentrations ranging from 0.1-100 μM for 10 minutes at 37° C. Reactions were initiated by adding NADPH at a final concentration of 1 mM and incubations were performed for an additional 15 minutes at 37° C.
(§2) Incubations for HO activity analysis were done under conditions for which the rate of CO formation (pmol CO/mg protein/minute) was linear with respect to time and microsomal protein concentration. Briefly, reaction mixtures (150 μL) consisting of 100 mM phosphate buffer (pH 7.4), 50 μM methemalbumin and 1 mg/mL protein were pre-incubated with the vehicle (ethanol or water in which the inhibitors were dissolved), or inhibitors at final concentrations ranging from 0.1-1000 μM for 10 minutes at 37° C. Reactions were initiated by adding β-NADPH at a final concentration of 1 mM and incubations were carried out for an additional 15 minutes at 37° C. Reactions were stopped by instantly freezing the reaction mixture on pulverized dry ice and CO formation was measured by gas chromatography using a TA 3000R Process Gas Analyzer (Trace Analytical/Ametek, Newark, Del., USA).
(§3) The values on the abscissa represent the decimal logarithm of the inhibitor's concentration (in μM), whereas the values of the activity on the ordinate are expressed as a percentage of the control experiments without inhibitor.
(§4) The IC50 values for the replicate experiments were employed to generate the reported standard deviation value.

[2] = biological target: T2, HO-1 (rat spleen) (Rattus norvegicus, UniProt P06762); assay: HO enzymatic activity, rat spleen microsomal fraction (CO formation from methemalbumin); assay type: biochemical
T2 construct: Spleen microsomes were used as a source of HO-1; from tissue; host or cells: spleen microsomal fraction of adult male Sprague-Dawley rats
T2 sequence (P06762 1-289): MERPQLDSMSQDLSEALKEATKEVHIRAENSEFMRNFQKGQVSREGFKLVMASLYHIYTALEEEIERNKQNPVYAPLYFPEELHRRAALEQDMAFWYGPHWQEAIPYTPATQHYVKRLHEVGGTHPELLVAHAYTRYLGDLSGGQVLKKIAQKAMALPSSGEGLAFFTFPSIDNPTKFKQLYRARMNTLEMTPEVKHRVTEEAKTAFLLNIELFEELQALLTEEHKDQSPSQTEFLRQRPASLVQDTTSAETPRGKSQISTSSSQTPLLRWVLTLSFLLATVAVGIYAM
Description: as §1, §2, §3, §4

[3] = IC50 HO-2 (rat brain)/μM), CO formation from methemalbumin, mean ± SD of replicate experiments
[4] = IC50 HO-1 (rat spleen/μM), CO formation from methemalbumin, mean ± SD of replicate experiments
[5] = IC50 HO-2 (rat brain)/μM), average ± SD of replicate experiments
[6] = IC50 HO-1 (rat spleen/μM), average ± SD of replicate experiments
[7] = average ± SD of replicate experiments, read-out: IC50 HO-2 (rat brain)/μM)
[8] = average ± SD of replicate experiments, read-out: IC50 HO-1 (rat spleen/μM)
[9] = CO formation from methemalbumin, mean ± SD of replicate experiments, read-out: IC50 HO-2 (rat brain)/μM)
[10] = CO formation from methemalbumin, mean ± SD of replicate experiments, read-out: IC50 HO-1 (rat spleen/μM)

Compound O=C(CCc1ccc(Br)cc1)Cn1cncn1 [QC-64, 4-(4-bromophenyl)-1-[1,2,4]triazol-1-yl-butan-2-one hydrochloride] has an IC50 [1, 3] of 3 ± 2 µM.

For CCC(O)Cn1ccnc1 (stereo not drawn) [QC-31, 1-(1H-imidazol-1-yl)butan-2-ol hydrochloride], the IC50 [1, 3] was over 100 µM and the IC50 [2, 4] was 131 ± 38 µM.

In the case of COC(=O)c1ncn(CC(=O)CCc2ccccc2)c1C(=O)OC [QC-123, 1-(2-Oxo-4-phenyl-butyl)-1H-imidazole-4,5-dicarboxylic acid dimethyl ester hydrochloride], the IC50 [1, 3] is reported as over 100 µM and the IC50 [2, 4] is reported as over 100 µM.

Cn1c(NCCc2c[nH]cn2)nc2ccccc21 [QC-147, [2-(1H-Imidazol-4-yl)-ethyl]-(1-methyl-1H-benzoimidazol-2-yl)-amine dihydrochloride] showed an IC50 [1, 5] of over 100 µM and an IC50 [2, 6] of over 100 µM.

Compound Cc1ccc(S(=O)(=O)OC[C@@H]2CO[C@](CCc3ccc(Cl)cc3)(Cn3ccnc3)O2)cc1 [QC-4, (2S,4S)-2-[2-(4-chlorophenyl)ethyl]-2-[(1H-imidazol-1-yl)methyl]-4-[(p-toluenesulfonyloxy)methyl]-1,3-dioxolane dihydrochloride] has an IC50 [1, 3] of 48 ± 6 µM and an IC50 [2, 4] of 19 ± 9 µM.

Nc1nc2cc(OCCCCN3CCCCC3)ccc2[nH]1 [QC-146, 5-(4-Piperidin-1-yl-butoxy)-1H-benzoimidazol-2-ylamine dihydrochloride 3/2 hydrate] gave an IC50 [1, 7] of over 100 µM and an IC50 [2, 8] of over 100 µM.

With COc1ccc(C(=O)Cn2ccnc2)cc1 [QC-163, 2-Imidazol-1-yl-1-(4-methoxyphenyl)-ethanone hydrochloride] the IC50 [1, 5] was 62 ± 3 µM and the IC50 [2, 8] was 32 ± 4 µM.

For c1ccc2[nH]c(NCCCCCN3CCCCC3)nc2c1 [QC-144, (1H-Benzoimidazol-2-yl)-(5-piperidin-1-yl-pentyl)-amine], the IC50 [1, 7] was over 100 µM and the IC50 [2, 8] was over 100 µM.

Work on O=C(CCc1ccc(Cl)cc1)Cn1ccnc1 [QC-9, 4-(4-chlorophenyl)-1-(1H-imidazol-1-yl)-2-butanone hydrochloride] yielded an IC50 [1, 9] of 43 ± 5 µM.

Compound CSCC[C@@H](N)C(=O)O [QC-69, D-methionine, reference compound] has an IC50 [1, 9] of over 100 µM and an IC50 [2, 10] of over 100 µM.

c1cn(CCCCn2ccnc2)cn1 [QC-88, 1,4-bis-(1H-imidazol-1-yl)butane dihydrochloride] was tested, and the IC50 [1, 9] was over 100 µM and the IC50 [2, 10] was over 100 µM.

OC(Cn1cncn1)(Cn1cncn1)c1ccc(F)cc1F [QC-90, Fluconazole, reference compound] was tested, and the IC50 [1, 9] was over 100 µM.

Compound O=C(CCc1ccccc1)Cn1cnnn1 [QC-118, 4-Phenyl-1-tetrazol-1-yl-butan-2-one hydrochloride] has an IC50 [1, 9] of 20 ± 10 µM and an IC50 [2, 4] of 2.6 ± 0.9 µM.

Compound c1ccc(C2(Cn3ccnc3)OCCO2)cc1 [QC-246, 1-(2-Phenyl-[1,3]dioxolan-2-ylmethyl)-1H-imidazole hydrochloride] has an IC50 [1, 5] of over 100 µM and an IC50 [2, 6] of 32 ± 3 µM.

O=C(Cn1ccnc1)c1ccc(Cl)c(Cl)c1 [QC-189, 1-(3,4-Dichlorophenyl)-2-imidazol-1-yl-ethanone] gave an IC50 [1, 5] of 4.7 ± 0.7 µM.

For COC(=O)c1ncn(CC(=O)CCc2ccccc2)n1 [QC-135, 1-(2-Oxo-4-phenyl-butyl)-1H-[1,2,4]triazole-3-carboxylic acid methyl ester], the IC50 [1, 9] was over 100 µM and the IC50 [2, 10] was over 100 µM.

Work on Cl.Clc1ccc(CC[C@@]2(Cn3ccnc3)OC[C@@H](COc3ccc(-c4ccccc4)cc3)O2)cc1 [QC-129, (2R,4S)-1-{4-Biphenyl-4-yloxymethyl)-2-[2-(4-chlorophenyl)ethyl]-[1,3]dioxolan-2-ylmethyl}-1H-imidazole hydrochloride] yielded an IC50 [1, 9] of 43 ± 3 µM.

COc1ccc(OC[C@H]2CO[C@](CCc3ccc(Cl)cc3)(Cn3ccnc3)O2)cc1 [QC-8, (2S,4S)-2-[2-(4-chlorophenyl)ethyl]-2-[(1H-imidazol-1-yl)methyl]-4-[(4-methoxyphenyloxy)methyl]-1,3-dioxolane hydrochloride] was tested, and the IC50 [1, 9] was 29 ± 6 µM and the IC50 [2, 10] was 28 ± 15 µM.

With c1cn(CCCCCCn2ccnc2)cn1 [QC-89, 1,6-bis-(1H-imidazol-1-yl)hexane dihydrochloride] the IC50 [1, 9] was over 100 µM and the IC50 [2, 10] was over 100 µM.

In the case of O=C(Cn1cncn1)c1ccc(Cl)cc1 [QC-158, 1-(4-Chlorophenyl)-2-[1,2,4]triazol-1-yl-ethanone hydrochloride], the IC50 [1, 5] is reported as 122 ± 0.1 µM and the IC50 [2, 6] is reported as 2.2 ± 0.5 µM.

In the case of CS(=O)(=O)c1ncn(CC(=O)CCc2ccccc2)n1 [QC-155, 1-(3-Methanesulfonyl-[1,2,4]triazol-1-yl)-4-phenyl-butan-2-one], the IC50 [1, 7] is reported as over 100 µM and the IC50 [2, 8] is reported as over 100 µM.

O=C(CCn1ccnc1)c1ccccc1O [QC-75, 1-(2-hydroxyphenyl)-3-imidazol-1-yl-propan-1-one] gave an IC50 [1, 3] of over 100 µM and an IC50 [2, 4] of 25 ± 12 µM.

CCN1CCN(c2nc3ccccc3[nH]2)CC1 [QC-148, 2-(4-Ethyl-piperazin-1-yl)-1H-benzoimidazole dihydrochloride hemihydrate] was tested, and the IC50 [1, 7] was over 100 µM and the IC50 [2, 8] was over 100 µM.

Compound O=C(CCc1ccccc1)Cn1ccnn1 [QC-91, 4-phenyl-1-(1H-[1,2,3]triazol-1-yl)butan-2-one] has an IC50 [2, 10] of 89 ± 1 µM.

Compound Fc1ccc(CCC2(Cn3ccnc3)OCCO2)cc1 [QC-55, 1-((2-(2-(4-Fluorophenyl)ethyl)-1,3-dioxolan-2-yl)methyl)-1H-imidazole hydrochloride] has an IC50 [2, 4] of 4 ± 1 µM.

Work on O=C(CCc1ccccc1)Cn1nccn1 [QC-101, 4-phenyl-1-[1,2,3]triazol-2-yl-butan-2-one] yielded an IC50 [2, 10] of over 100 µM.

In the case of O=C(CCc1ccccc1)Cn1cncn1 [QC-86, 4-phenyl-1-[1,2,4]triazol-1-yl-butan-2-one hydrochloride], the IC50 [1, 9] is reported as 34 ± 3 µM.

O=C(CCc1ccc(F)cc1)Cn1ccnc1 [QC-54, 4-(4-Fluorophenyl)-1-(1H-imidazol-1-yl)-2-butanone hydrochloride] gave an IC50 [1, 3] of 2 ± 0.2 µM.

Work on Nc1ccccc1SC[C@@H]1CO[C@](CCc2ccc(Cl)cc2)(Cn2ccnc2)O1 [QC-3, (2S,4S)-2-[2-(4-chlorophenyl)ethyl]-2-[(1H-imidazol-1-yl)methyl]-4-[{(2-aminophenyl)thio}methyl]-1,3-dioxolane dihydrochloride] yielded an IC50 [1, 3] of 55 ± 26 µM.

Work on CC(C)(C(=O)c1ccccc1)n1ccnc1 [QC-187, 2-Imidazol-1-yl-2-methyl-1-phenyl-propan-1-one] yielded an IC50 [2, 6] of over 100 µM.

Work on Nc1cccc(SC[C@H]2CO[C@](CCc3ccc(Cl)cc3)(Cn3ccnc3)O2)c1 [QC-20, (2S,4R)-2-[2-(4-chlorophenyl)ethyl]-2-[(1H-imidazol-1-yl)methyl]-4-[{(3-aminophenyl)thio}methyl]-1,3-dioxolane hydrochloride] yielded an IC50 [2, 4] of 5.2 ± 0.4 µM.

For c1ccc(CCC2(Cn3cncn3)OCCO2)cc1 [QC-104, 2-(2-phenethyl)-2-{(1H-[1,2,4]triazol-1-yl)methyl}-1,3-dioxolane hydrochloride], the IC50 [2, 10] was 14 ± 3 µM.

Work on O=C(/C=C/c1ccccc1)CCn1ccnc1 [QC-223, 5-(1H-Imidazol-1-yl)-1-phenyl-pent-1-en-3-one hydrochloride] yielded an IC50 [1, 5] of 31 ± 12 µM.

For O=C(CCc1ccccc1)Cn1cccn1 [QC-87, 4-phenyl-1-pyrazol-1-yl-butan-2-one hydrochloride], the IC50 [2, 4] was over 100 µM.

With O=C(CCc1ccc(Br)cc1)Cn1ccnc1 [QC-53, 4-(4-Bromophenyl)-1-(1H-imidazol-1-yl)-2-butanone hydrochloride] the IC50 [1, 3] was 10 ± 5 µM.

With Nc1ccccc1SC[C@H]1CO[C@@](CCc2ccc(Cl)cc2)(Cn2ccnc2)O1 [QC-22, (2R,4R)-2-[2-(4-chlorophenyl)ethyl]-2-[(1H-imidazol-1-yl)methyl]-4-[{(2-aminophenyl)thio}methyl]-1,3-dioxolane dihydrochloride] the IC50 [2, 4] was 87 ± 24 µM.

Reference: patent publication US20120020915A1, “Compounds and Methods for Treating Cancer and Diseases of the Central Nervous System” (QUEENS UNIVERSITY AT KINGSTON, priority 2007, published 2012)
